# From a compilation of properties of binary mixtures (doi:10.1016/j.molliq.2022.120983)
# Assay: xn = mol fraction of the nth substance listed
# Settings: 101.3 kPa
smiles,measurement,setting,value
C[C@H](N)C(=O)[O-].C[N+](C)(C)CCO + O,viscosity,"298.1 K, x1 = 0.0588",5 mPa·s
same,viscosity,"298.1 K, x1 = 0.1232",9.1 mPa·s
same,viscosity,"313 K, x1 = 0.0588",3.18 mPa·s
same,viscosity,"313 K, x1 = 0.2726",18.2 mPa·s
same,viscosity,"333 K, x1 = 0.1232",3.64 mPa·s
same,viscosity,"333 K, x1 = 0.2726",10.2 mPa·s
C[N+](C)(C)CCO.NCC(=O)[O-] + O,viscosity,"298.1 K, x1 = 0.0631",4.09 mPa·s
same,viscosity,"298.1 K, x1 = 0.1317",10 mPa·s
same,viscosity,"298.1 K, x1 = 0.2879",20.9 mPa·s
same,viscosity,"313 K, x1 = 0.0631",2.73 mPa·s
same,viscosity,"313 K, x1 = 0.1317",6.4 mPa·s
same,viscosity,"313 K, x1 = 0.2879",12.3 mPa·s
same,viscosity,"333 K, x1 = 0.0631",1.82 mPa·s
same,viscosity,"333 K, x1 = 0.1317",3.64 mPa·s
same,viscosity,"333 K, x1 = 0.2879",7.3 mPa·s
